Experiments:
[1] = target: T1, ATP-dependent potassium channels (K+ATP) (Rattus norvegicus, UniProt Q09429); assay: [3H]glibenclamide binding to ATP-dependent potassium channels of rat cerebral cortex; details: 1 h; 300 nM; specific displacement of [3H]glibenclamide 0.1 nM; read-out: KATP binding (300 nM)
T1 construct: the potassium channels derive from a rat's cerebral cortex; tissue CEREP; host or cells: rat cerebral cortex
Procedure, shortened: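 Rat cerebral cortex membranes incubated 1 h at 22° C with 0.1 nM [3H]glibenclamide; nonspecific binding defined with 1 μM unlabelled glibenclamide. Compounds tested at 3–300 nM; values are percent inhibition of specific binding.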

hPPARδ = target: T2, hPPARδ (Homo sapiens, UniProt Q03181); assay: Gal4-hPPARδ chimera transactivation in COS-7 cells (luciferase); assay type: cell-based; details: induction factor standardised to an internal reference, read-out: % hGal4-PPAR transactivation (10 μM) delta
T2 construct: fragments of DNA amplified by PCR corresponding to the DEF domains of the human PPARα, PPARγ PPARδ nuclear receptors; expressed in transfected cells; host or cells: COS-7 (monkey kidney fibroblast line)
T2 sequence (Q03181 211-439 limits assumed): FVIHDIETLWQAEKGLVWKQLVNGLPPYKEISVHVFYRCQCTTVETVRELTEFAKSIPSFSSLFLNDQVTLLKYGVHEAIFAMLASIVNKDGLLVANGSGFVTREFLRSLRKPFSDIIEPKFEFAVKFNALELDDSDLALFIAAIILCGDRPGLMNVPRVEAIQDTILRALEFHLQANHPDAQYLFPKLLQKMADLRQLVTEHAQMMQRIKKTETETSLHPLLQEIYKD
Procedure, shortened: (§1)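 COS-7 cells transiently transfected with Gal4-DBD/human PPAR DEF-domain chimeras plus Gal4(RE)_TkpGL3 luciferase reporter (1/10 ratio), then exposed 24 h serum-free to compound at 10 μM. Luciferase induction factor over control, normalised to an internal reference per isoform, expressed as percent activation.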

hPPARα = target: T3, hPPARα (Homo sapiens, UniProt Q07869); assay: Gal4-hPPARα chimera transactivation in COS-7 cells (luciferase); assay type: cell-based; details: induction factor standardised to an internal reference, read-out: % hGal4-PPAR transactivation (10 μM) alpha
T3 construct: fragments of DNA amplified by PCR corresponding to the DEF domains of the human PPARα, PPARγ PPARδ nuclear receptors; expressed in transfected cells; host or cells: COS-7 (monkey kidney fibroblast line)
T3 sequence (Q07869 239-466 limits assumed): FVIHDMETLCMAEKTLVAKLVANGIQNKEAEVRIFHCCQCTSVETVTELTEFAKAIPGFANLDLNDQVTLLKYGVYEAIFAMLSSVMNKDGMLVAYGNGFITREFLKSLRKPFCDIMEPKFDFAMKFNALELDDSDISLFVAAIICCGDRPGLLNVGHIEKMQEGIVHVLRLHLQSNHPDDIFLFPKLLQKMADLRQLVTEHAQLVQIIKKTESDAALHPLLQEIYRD
Procedure, shortened: as §1

[2] = tested on: Male Dunkin Hartley guinea pigs; assay: Lipid-lowering effect in guinea pigs on a cholesterol and fat enriched diet; assay type: in vivo, guinea pig; details: 200 mpk for 14 days; high fat diet
Procedure: The lipid-lowering effect of the inventive compounds was evaluated in vivo in Hartley guinea pigs. In guinea pigs, as in man, a diet enriched in cholesterol and fatty acids induces an increase in the plasmatic levels of lipids. Plasmatic lipid levels (cholesterol and triglycerides) after 14 days treatment were measured and compared to the levels observed for non-treated animals (controls).
Male Dunkin Hartley guinea pigs (Harlan, Gannat, France) aged 5-6 weeks at the start of the experiment were put in groups of 6 animals selected such that the distribution of their body weight and of their plasmatic lipid levels determined before the experiment were uniform. The guinea pigs were given a diet containing 0.2% cholesterol and 14% fats (Research Diets Inc.-USA). They were kept in a 12 hour/12 hour light/dark cycle at a constant temperature of 20±3° C. and had free access to water and food. The amount of food eaten and the increase in weight were recorded. The compounds tested were suspended in an aqueous carboxymethylcellulose solution (Sigma C4888) at 1% containing 0.1% Tween80 (Sigma P8074) and administered daily by intragastric gavage for 14 days at a dose of 200 mg/kg/day. […]
The plasmatic concentrations of the lipids (total cholesterol and triglycerides) were measured by enzymatic titrations (bioMérieux-Lyon-France) according to the supplier's recommendations.

T1 sequence (Q09429 whole entry): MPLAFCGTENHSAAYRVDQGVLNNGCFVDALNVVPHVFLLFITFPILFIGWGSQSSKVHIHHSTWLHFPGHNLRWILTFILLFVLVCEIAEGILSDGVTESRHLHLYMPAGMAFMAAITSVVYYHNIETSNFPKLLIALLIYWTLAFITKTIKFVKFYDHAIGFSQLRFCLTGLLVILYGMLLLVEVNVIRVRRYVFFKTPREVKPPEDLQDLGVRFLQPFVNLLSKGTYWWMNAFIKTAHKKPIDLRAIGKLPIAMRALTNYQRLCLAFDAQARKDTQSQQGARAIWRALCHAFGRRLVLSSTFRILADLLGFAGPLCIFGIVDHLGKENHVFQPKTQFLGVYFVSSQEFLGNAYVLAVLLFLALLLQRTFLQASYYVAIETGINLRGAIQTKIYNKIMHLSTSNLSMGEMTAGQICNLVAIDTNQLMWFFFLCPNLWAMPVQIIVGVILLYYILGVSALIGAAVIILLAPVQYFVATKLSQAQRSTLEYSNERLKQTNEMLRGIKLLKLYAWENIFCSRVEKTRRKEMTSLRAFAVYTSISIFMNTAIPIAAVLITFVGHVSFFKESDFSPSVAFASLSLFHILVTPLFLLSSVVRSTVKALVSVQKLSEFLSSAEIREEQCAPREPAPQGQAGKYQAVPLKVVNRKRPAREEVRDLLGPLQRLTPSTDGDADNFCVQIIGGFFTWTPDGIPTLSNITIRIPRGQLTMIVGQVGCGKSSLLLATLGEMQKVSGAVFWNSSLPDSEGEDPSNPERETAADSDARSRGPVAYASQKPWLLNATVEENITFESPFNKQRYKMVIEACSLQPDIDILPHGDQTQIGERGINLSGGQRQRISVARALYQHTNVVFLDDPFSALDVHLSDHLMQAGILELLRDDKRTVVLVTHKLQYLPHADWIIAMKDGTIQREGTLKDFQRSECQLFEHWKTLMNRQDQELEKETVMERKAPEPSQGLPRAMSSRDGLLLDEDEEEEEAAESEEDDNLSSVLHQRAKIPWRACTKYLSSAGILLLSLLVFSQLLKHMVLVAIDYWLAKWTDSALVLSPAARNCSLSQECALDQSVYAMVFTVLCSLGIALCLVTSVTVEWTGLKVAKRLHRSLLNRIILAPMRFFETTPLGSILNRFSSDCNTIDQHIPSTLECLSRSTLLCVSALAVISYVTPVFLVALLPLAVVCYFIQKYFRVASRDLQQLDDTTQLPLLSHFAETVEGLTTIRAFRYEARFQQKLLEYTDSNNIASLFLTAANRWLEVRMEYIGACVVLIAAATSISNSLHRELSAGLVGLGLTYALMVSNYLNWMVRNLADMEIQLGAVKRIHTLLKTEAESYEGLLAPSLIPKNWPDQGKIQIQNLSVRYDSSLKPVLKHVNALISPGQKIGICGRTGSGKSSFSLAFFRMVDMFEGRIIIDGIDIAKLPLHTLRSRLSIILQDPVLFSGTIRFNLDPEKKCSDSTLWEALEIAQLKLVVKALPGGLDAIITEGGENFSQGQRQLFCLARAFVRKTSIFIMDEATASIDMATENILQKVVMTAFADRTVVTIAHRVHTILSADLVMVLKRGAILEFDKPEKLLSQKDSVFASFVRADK
T1 sequence (P70673 whole entry partner): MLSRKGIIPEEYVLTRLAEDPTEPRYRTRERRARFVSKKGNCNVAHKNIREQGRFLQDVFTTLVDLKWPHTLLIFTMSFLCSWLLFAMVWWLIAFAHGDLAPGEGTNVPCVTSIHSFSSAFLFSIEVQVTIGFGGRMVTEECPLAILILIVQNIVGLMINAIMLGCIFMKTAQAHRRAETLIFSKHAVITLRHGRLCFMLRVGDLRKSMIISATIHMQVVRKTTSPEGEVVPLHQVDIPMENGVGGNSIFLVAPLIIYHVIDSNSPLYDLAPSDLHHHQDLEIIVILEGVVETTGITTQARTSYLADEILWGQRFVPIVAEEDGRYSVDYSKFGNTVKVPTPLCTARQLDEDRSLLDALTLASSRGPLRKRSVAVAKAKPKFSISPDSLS

SMILES: CCCCC(NC(=O)Cc1ccc(OC(C)(C)C(=O)NS(C)(=O)=O)cc1)c1ccccc1N1CCCCC1 (centres unmarked) [Compound 52, N-[methylsulfonyl]-2-[4-[1-(1-(2-(1-piperidinyl)phenyl)pentyl)aminocarbonylmethyl]phenoxy]-2-methylpropanamide]
- inhibition at 0.3 µM [1]: 83%
- activation at 10 µM (hPPARδ): < 10%
- activation at 10 µM (hPPARα): 42%
- Cholesterol plasmatic levels, lower than controls [2]: approximately 45%
- Triglycerides plasmatic levels, lower than controls [2]: approximately 22%

Reference: patent US20060079696A1, “Substituted compounds derived from N-(benzyl)phenylacetamide, preparation and uses” (GENFIT, priority 2004, published 2006)
